Data: US20230277534A1 (Plexxikon Inc., priority 2011, published 2023)

Key:
[1] = tested on: IPC-298 human melanoma cell line that expresses activated NRAS; experiment: IPC-298_P-ERK cell activation assay (phosphorylated ERK, AlphaScreen); type: cell-based; conditions: IPC-298 cells, P-ERK activation
Procedure: B9 is a squamous cell carcinoma cell line expressing activated HRAS that was isolated from a DMBA/TPA-induced mouse model of skin carcinogenesis (Stoler, et al. The Journal of Cell Biology, 1993, 122(5), 1103-17). IPC-298 is a human melanoma cell line that expresses activated NRAS (Aubert, et al. International Journal of Cancer, 1993, 54(5), 784-92). To determine whether compounds induce phosphorylated ERK and MEK, cells are plated in a 96-well dish and treated with an 8-point titration of compound for one hour at 37° C. The media is then removed and the cells are incubated with lysis buffer containing protease and phosphatase inhibitors. Phosphorylated ERK and MEK in the resulting lysates is detected using AlphaScreen™ technology. To detect phosphorylated ERK, cell lysates are incubated with streptavidin-coated donor beads, anti-mouse IgG acceptor beads, a biotinylated anti-ERK1/2 rabbit antibody, and a mouse antibody that recognizes ERK1/2 only when it is phosphorylated on Thr202 and Tyr204. The biotinylated ERK1/2 antibody will bind to both the streptavidin-coated donor beads and to ERK1/2 (regardless of its phosphorylation state), and the phospho-ERK1/2 antibody will bind to the acceptor beads and to ERK1/2 that is phosphorylated at Thr202/Tyr204. Excitation of the beads with laser light at 680 nm produces singlet oxygen, which is rapidly quenched unless the beads are in close proximity. When ERK is phosphorylated, both antibodies can bind the same protein, bringing the donor and acceptor beads into close proximity, producing a signal that can be measured at 580 nm. MEK phosphorylation is detected using a similar approach, only with antibodies directed against total MEK1/2 and MEK1/2 that is phosphorylated at Ser217 and Ser221.

[2] = target: B-Raf V600E (Homo sapiens (Human), UniProt P15056, V600E); experiment: B-Raf V600E kinase biochemical activity assay (AlphaScreen, biotin-MEK1 substrate); conditions: 100 μM ATP
In short: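 IC50 was derived from AlphaScreen signal (anti-phospho-MEK1/2 antibody with streptavidin donor and Protein A acceptor beads, 3 h) across 8 compound concentrations. The kinase step ran 45 min at room temperature: 0.1 ng B-Raf V600E, 100 nM biotin-MEK1, 100 μM final ATP, pH 7.0 HEPES with MgCl2/MnCl2.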

[3] = tested on: COLO205 colon adenocarcinoma cells (B-Raf V600E mutation); experiment: COLO205 cell growth inhibition (ATPlite); type: cell-based; conditions: Homo sapiens, COLO 205, 72 h, 3 days
In short: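 Cells treated for 3 days at 37 °C, 5% CO2 with an 8-point 1:3 dilution series, top final concentration 10 μM, DMSO control. ATPlite luminescence used as a measure of cell number; IC50 from reading versus concentration.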

B-Raf V600E, sequence (P15056 whole entry V600E): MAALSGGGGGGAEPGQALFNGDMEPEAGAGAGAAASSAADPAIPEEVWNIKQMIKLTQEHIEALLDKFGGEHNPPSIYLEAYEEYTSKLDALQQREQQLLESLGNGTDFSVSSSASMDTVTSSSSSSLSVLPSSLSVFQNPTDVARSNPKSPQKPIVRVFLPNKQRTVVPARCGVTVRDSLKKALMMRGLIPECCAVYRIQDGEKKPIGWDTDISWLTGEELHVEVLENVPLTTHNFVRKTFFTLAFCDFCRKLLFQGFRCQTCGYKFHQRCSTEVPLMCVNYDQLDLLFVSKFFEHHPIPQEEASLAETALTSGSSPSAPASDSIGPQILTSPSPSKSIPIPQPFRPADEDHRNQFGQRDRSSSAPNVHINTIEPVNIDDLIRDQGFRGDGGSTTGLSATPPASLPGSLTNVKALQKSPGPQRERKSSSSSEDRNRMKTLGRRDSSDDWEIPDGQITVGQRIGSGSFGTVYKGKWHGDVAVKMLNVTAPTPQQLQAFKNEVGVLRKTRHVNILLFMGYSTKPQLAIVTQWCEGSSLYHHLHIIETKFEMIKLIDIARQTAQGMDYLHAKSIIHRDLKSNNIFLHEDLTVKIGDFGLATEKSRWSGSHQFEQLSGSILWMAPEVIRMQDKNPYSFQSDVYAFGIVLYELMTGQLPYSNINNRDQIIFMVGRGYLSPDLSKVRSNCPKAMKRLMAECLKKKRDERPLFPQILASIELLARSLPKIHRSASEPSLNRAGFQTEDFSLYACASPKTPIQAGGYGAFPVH

EC50 ([1]; 1 h, compound for one hour)	EC50 ([1]; compounds known in the art)	IC50 [2]	IC50 [3]	Structure (SMILES)
> 10 µM				CN(C)c1ncc(-c2cnc3[nH]cc(C(=O)c4c(F)ccc(NS(=O)(=O)N5CCCC5)c4F)c3c2)cn1 [Compound P-0022]
	< 0.5 µM			CCCS(=O)(=O)Nc1ccc(F)c(C(=O)c2c[nH]c3ncc(Cl)cc23)c1F
> 2 µM		< 0.1 µM		O=C(c1c(F)ccc(NS(=O)(=O)N2CCC(F)(F)C2)c1F)c1c[nH]c2ncc(-c3cnc(C4CC4)nc3)cc12 [Compound P-0288, N-[3-[5-(2-cyclopropylpyrimidin-5-yl)-1H-pyrrolo[2,3-b]pyridine-3-carbonyl]-2,4-difluoro-phenyl]-3,3-difluoro-pyrrolidine-1-sulfonamide]
> 10 µM		< 0.1 µM		CCN(C)S(=O)(=O)Nc1cccc(C(=O)c2c[nH]c3ncc(-c4ccc(C5(C#N)CC5)cc4)cc23)c1F [Compound P-0061, 5-[4-(1-cyanocyclopropyl)phenyl]-3-[3-[[ethyl(methyl)sulfamoyl]amino]-2-fluoro-benzoyl]-1H-pyrrolo[2,3-b]pyridine]
> 4 µM		> 0.1 µM		NS(=O)(=O)Nc1ccc(F)c(C(=O)c2c[nH]c3ncc(-c4cnc(C5CC5)nc4)cc23)c1F [Compound P-0336, 5-(2-cyclopropylpyrimidin-5-yl)-3-[2,6-difluoro-3-(sulfamoylamino)benzoyl]-1H-pyrrolo[2,3-b]pyridine]
> 10 µM				Cc1ccc(-c2cnc3[nH]cc(C(=O)c4cccc(NS(=O)(=O)N(C)C)c4F)c3c2)cn1 [Compound P-0029]
		< 0.1 µM	< 1 µM	CCN(C)S(=O)(=O)Nc1ccc(F)c(C(=O)c2c[nH]c3ncc(-c4ccc(-c5nnc(C)o5)cc4)cc23)c1F [Compound P-0304, 2-[4-[3-[3-[[ethyl(methyl)sulfamoyl]amino]-2,6-difluoro-benzoyl]-1H-pyrrolo[2,3-b]pyridin-5-yl]phenyl]-5-methyl-1,3,4-oxadiazole]
		< 0.1 µM	< 1 µM	CN1CCN(c2ncc(-c3cnc4[nH]cc(C(=O)c5c(F)ccc(NS(=O)(=O)N6CCCC6)c5F)c4c3)cn2)CC1 [Compound P-0260, N-[2,4-difluoro-3-[5-[2-(4-methylpiperazin-1-yl)pyrimidin-5-yl]-1H-pyrrolo[2,3-b]pyridine-3-carbonyl]phenyl]pyrrolidine-1-sulfonamide]
		< 0.1 µM	< 1 µM	CCC(C)S(=O)(=O)Nc1cccc(C(=O)c2c[nH]c3ncc(-c4cnc(OC)nc4)cc23)c1F (centres unmarked) [Compound P-0224, N-[2-fluoro-3-[5-(2-methoxypyrimidin-5-yl)-1H-pyrrolo[2,3-b]pyridine-3-carbonyl]phenyl]butane-2-sulfonamide]
		< 0.1 µM	< 1 µM	Cc1ncc(-c2cnc3[nH]cc(C(=O)c4cccc(NS(=O)(=O)N(C)CC5CC5)c4F)c3c2)cn1 [Compound P-0112, 3-[3-[[cyclopropylmethyl(methyl)sulfamoyl]amino]-2-fluoro-benzoyl]-5-(2-methylpyrimidin-5-yl)-1H-pyrrolo[2,3-b]pyridine]
		< 0.1 µM	> 1 µM	COCCN(C)S(=O)(=O)Nc1cccc(C(=O)c2c[nH]c3ncc(-c4ccc(C5(C#N)CC5)cc4)cc23)c1F [Compound P-0080, 5-[4-(1-cyanocyclopropyl)phenyl]-3-[2-fluoro-3-[[2-methoxyethyl(methyl)sulfamoyl]amino]benzoyl]-1H-pyrrolo[2,3-b]pyridine]
> 10 µM				O=C(c1c(F)ccc(NS(=O)(=O)N2CCCC2)c1F)c1c[nH]c2ncc(I)cc12 [Compound P-0024]
		< 0.1 µM	< 1 µM	CN(C1CC1)S(=O)(=O)Nc1ccc(F)c(C(=O)c2c[nH]c3ncc(-c4cnc(C5CC5)nc4)cc23)c1F [Compound P-0252, 3-[3-[[cyclopropyl(methyl)sulfamoyl]amino]-2,6-difluoro-benzoyl]-5-(2-cyclopropylpyrimidin-5-yl)-1H-pyrrolo[2,3-b]pyridine]
		< 0.1 µM	> 1 µM	O=C(c1cccc(NS(=O)(=O)N2CCCC2)c1F)c1c[nH]c2ncc(-c3ccc(C4(C(=O)O)CC4)cc3)cc12 [Compound P-0243, 1-[4-[3-[2-fluoro-3-(pyrrolidin-1-ylsulfonylamino)benzoyl]-1H-pyrrolo[2,3-b]pyridin-5-yl]phenyl]cyclopropanecarboxylic acid]
		< 0.1 µM	> 1 µM	CCN(C)S(=O)(=O)Nc1cccc(C(=O)c2c[nH]c3ncc(-c4ccc(C#N)nc4)cc23)c1F [Compound P-0102, 5-(6-cyano-3-pyridyl)-3-[3-[[ethyl(methyl)sulfamoyl]amino]-2-fluoro-benzoyl]-1H-pyrrolo[2,3-b]pyridine]

The remaining lines, values behind:

Structure (SMILES)	EC50 ([1]; 1 h, compound for one hour)	EC50 ([1]; compounds known in the art)	IC50 [2]	IC50 [3]
CCN(C)S(=O)(=O)Nc1cccc(C(=O)c2c[nH]c3ncc(-c4cccnc4)cc23)c1F [Compound P-0032]	> 10 µM			
CNS(=O)(=O)Nc1cccc(C(=O)c2c[nH]c3ncc(-c4cnc(OC)nc4)cc23)c1F [Compound P-0026]	> 10 µM			
CCN(C)S(=O)(=O)Nc1cccc(C(=O)c2c[nH]c3ncc(-c4ccc(C#N)cc4)cc23)c1F [Compound P-0031]	> 10 µM			
CCN(C)S(=O)(=O)Nc1cccc(C(=O)c2c[nH]c3ncc(-c4ccccc4)cc23)c1F [Compound P-0036, 3-[3-[[ethyl(methyl)sulfamoyl]amino]-2-fluoro-benzoyl]-5-phenyl-1H-pyrrolo[2,3-b]pyridine]	> 10 µM		< 0.1 µM	
COc1ncc(-c2cnc3[nH]cc(C(=O)c4c(F)ccc(NS(=O)(=O)c5ccccc5F)c4F)c3c2)cn1		< 0.5 µM		
O=C(c1c(F)ccc(NS(=O)(=O)N2CCCC2)c1F)c1c[nH]c2ncc(F)c(I)c12 [Compound P-0015, N-[2,4-difluoro-3-(5-fluoro-4-iodo-1H-pyrrolo[2,3-b]pyridine-3-carbonyl)phenyl]pyrrolidine-1-sulfonamide]	> 10 µM		< 0.1 µM	
CN(C)S(=O)(=O)Nc1cccc(C(=O)c2c[nH]c3ncc(-c4ccccc4)cc23)c1F [Compound P-0037, 3-[3-(dimethylsulfamoylamino)-2-fluoro-benzoyl]-5-phenyl-1H-pyrrolo[2,3-b]pyridine]	> 10 µM		< 0.1 µM	
COc1ncc(-c2cnc3[nH]cc(C(=O)c4c(F)ccc(NS(=O)(=O)c5cc(F)ccc5F)c4F)c3c2)cn1		< 1 µM		
CCCN(C)S(=O)(=O)Nc1cccc(C(=O)c2c[nH]c3ncc(-c4cnc(C)nc4)cc23)c1F [Compound P-0111, 3-[2-fluoro-3-[[methyl(propyl)sulfamoyl]amino]benzoyl]-5-(2-methylpyrimidin-5-yl)-1H-pyrrolo[2,3-b]pyridine]			< 0.1 µM	< 1 µM
O=C(c1cccc(NS(=O)(=O)N2CCCC2)c1F)c1c[nH]c2ncc(-c3ccc(C(F)(F)F)nc3)cc12 [Compound P-0095, N-[2-fluoro-3-[5-[6-(trifluoromethyl)-3-pyridyl]-1H-pyrrolo[2,3-b]pyridine-3-carbonyl]phenyl]pyrrolidine-1-sulfonamide]			< 0.1 µM	< 1 µM
CN(C)c1ccc(-c2cnc3[nH]cc(C(=O)c4cccc(NS(=O)(=O)N(C)C)c4F)c3c2)cn1 [Compound P-0030]	> 10 µM			
CCC(C)S(=O)(=O)Nc1cccc(C(=O)c2c[nH]c3ncc(-c4ccc(N(C)C)nc4)cc23)c1F (centres unmarked) [Compound P-0230, N-[3-[5-[6-(dimethylamino)-3-pyridyl]-1H-pyrrolo[2,3-b]pyridine-3-carbonyl]-2-fluoro-phenyl]butane-2-sulfonamide]			< 0.1 µM	< 1 µM
